Paper PMC8877008, “Synthesis and Structure–Activity Relationship Studies of Benzimidazole-4,7-dione-Based P2X3 Receptor Antagonists as Novel Anti-Nociceptive Agents” (Molecules, 2022)

Tests used:
hP2X3R = molecular target: T1, hP2X3R (Homo sapiens, UniProt P56373); assay: Calcium influx (Fluo-4) evoked by α,β-meATP in HEK293 cells stably expressing hP2X3R; format: cell-based; details: for IC50: antagonistic activity, HEK293 cells expressing hP2X3R, agonist at EC70; for Decrease of P2X3R antagonistic activity compared with KCB-77033: relative to hit compound KCB-77033
T1 construct: expressed in transfected cells
T1 sequence (P56373 1-397): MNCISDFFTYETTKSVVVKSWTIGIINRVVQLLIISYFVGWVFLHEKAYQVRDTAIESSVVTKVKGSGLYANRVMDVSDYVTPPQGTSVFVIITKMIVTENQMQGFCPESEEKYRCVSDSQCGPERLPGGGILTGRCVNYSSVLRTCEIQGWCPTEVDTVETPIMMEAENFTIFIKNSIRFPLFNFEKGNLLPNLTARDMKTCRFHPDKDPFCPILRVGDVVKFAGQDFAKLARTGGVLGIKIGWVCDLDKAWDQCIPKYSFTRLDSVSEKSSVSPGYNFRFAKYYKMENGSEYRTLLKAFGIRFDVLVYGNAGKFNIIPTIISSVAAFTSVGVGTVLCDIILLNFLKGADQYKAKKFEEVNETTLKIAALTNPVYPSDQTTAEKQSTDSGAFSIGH
Method: For the evaluation of P2XR activities, a cell-based assay system was employed to measure the level of fluorescence emission, based on Fluo-4 dye, during Ca^2+ influx evoked by αβmeATP in HEK293 cells stably expressing hP2X2/3R and hP2X3R. The library containing 8364 representative compounds for the screening of antagonistic activity was provided by the Korea Chemical Bank. The antagonistic activities were evaluated in the presence of P2X3R agonist of the concentration for EC70 value (200–250 nM for hP2X3R and 1–4 μM for hP2X2/3R highly expressed cell lines), and AF353 was used as the positive control antagonist for comparison. For the first round of screening, a single concentration (25 μM) of each library compound was tested to identify initial hit compounds, which were subsequently validated using both concentrations of 25 and 10 μM. Using a cut-off threshold of higher than 50% antagonistic activity and after confirming dose-dependency, 12 main hit compounds were selected.
3.4. Cell-Based Assay: Measurement of Calcium Influx by Fluorescence-Based Fluo-4 Dye Uptake in HEK293 Cells Expressing hP2X2/3 and hP2X3 Receptors
Human P2X3-expressing HEK293 cells were grown in DMEM supplemented with 10% fetal bovine serum and 1% antibiotic–antimycotic as a monolayer culture at 37 °C in a humidified atmosphere of 5% CO2. The 96-well black plates used in the experiments were prepared by coating them with 1× poly-D-lysine (A3890401, Thermo-Fisher Scientific Korea, Seoul, South Korea). An aliquot of 40 μL 1× poly-D-lysine was used to treat each of the wells in a flat orientation. After leaving the plates for at least 4 h to absorb the poly-D-lysine, the plates were allowed to dry for at least 6 h. The DMEM used in the culture of HEK293 cells was removed from the dish, followed by application of 3 mL 1× PBS for washing. Removal of 1× PBS was followed by application of 1 mL trypsin/EDTA, and the cells were collected by centrifugation at 1200 rpm for 2 min. The supernatant was removed, and 1 mL fresh DMEM added. The cells were resuspended in media and plates prepared with 4.8 × 10^4 cells/well in 56 μL/well. After 18 h of cell culture in the 96-well black plate, 56 μL of Fluo-4 dye (Fluo-4 Direct^TM Calcium Assay Kit, F10471, Invitrogen, Thermo-Fisher Scientific Korea, Seoul, South Korea) was added to each well, prepared according to the manufacturer’s protocol, and incubated for 50 min~1 h under culturing conditions. Then, 12.4 μL of the appropriate compound solution was added to each well, and the positive control was AF353 (A1612, Sigma Aldrich Korea, Seoul, South Korea) and the negative control was 5% DMSO. Plates were incubated at room temperature and sealed to avoid interference from light for 50 min~1 h. Flexstation 3 and its software provided by Molecular Devices was used for the measurement of fluorescence in real time of treatments using prepared α,β-meATP (M6517, Sigma Aldrich) solution to evoke calcium influx and increased cell membrane potential.
For the analysis of antagonistic activities, all data were calculated by Origin Pro 9.1 software provided by Originlab and the fitting of graphs was proceeded by the growth/sigmoidal and hill1 process within no weights for data selections. For the analysis of the behavioral assessments of pain models, all data are expressed as mean ± SEM. The dose–response data are presented as percentages of the maximum possible effect. Statistical significance was analyzed by independent t-test. The criterion for statistical significance was p < 0.05. The statistical analysis was performed using SPSS 25.0 software (IBM Corp., Armonk, NY, USA).

[1] = Metabolic stability in microsomal fraction, mouse; format: in vitro ADME; details: mouse; Table 1
[2] = Metabolic stability in microsomal fraction, rat; format: in vitro ADME; details: Table 1
[3] = Metabolic stability in microsomal fraction, human; format: in vitro ADME; details: Table 1

| SMILES | IC50 (hP2X3R) | also measured |
| --- | --- | --- |
| O=C1C(Nc2ccc(Br)c(F)c2)=C(Cl)C(=O)c2[nH]c(C(F)(F)F)nc21 [11j, 5-((4-Bromo-3-fluorophenyl)amino)-6-chloro-2-(trifluoromethyl)-1H-benzo[d]imidazole-4,7-dione] | 782 ± 139 nM | – |
| O=C1C(NC2CCN(C(=O)c3ccc(Br)cc3)CC2)=C(Cl)C(=O)c2[nH]c(C(F)(F)F)nc21 [14f, 5-((1-(4-Bromobenzoyl)piperidin-4-yl)amino)-6-chloro-2-(trifluoromethyl)-1H-benzo[d]imidazole-4,7-dione] | 804 ± 91 nM | – |
| Cc1nc2c([nH]1)C(=O)C(Cl)=C(Nc1ccc(Cl)cc1)C2=O [10b, 6-Chloro-5-((4-chlorophenyl)amino)-2-methyl-1H-benzo[d]imidazole-4,7-dione] | 3720 ± 731 nM | Decrease of P2X3R antagonistic activity compared with KCB-77033 (hP2X3R): 4–5 fold |
| O=C1C(Nc2ccc(Cl)c(Cl)c2)=C(Cl)C(=O)c2[nH]c(C(F)(F)F)nc21 [11d, 6-Chloro-5-((3,4-dichlorophenyl)amino)-2-(trifluoromethyl)-1H-benzo[d]imidazole-4,7-dione] | 808 ± 75 nM | – |
| O=C1C(NC2CCN(C(=O)c3ccc(Cl)cc3)CC2)=C(Cl)C(=O)c2[nH]c(C(F)(F)F)nc21 [14e, 6-Chloro-5-((1-(4-chlorobenzoyl)piperidin-4-yl)amino)-2-(trifluoromethyl)-1H-benzo[d]imidazole-4,7-dione] | 481 ± 20 nM | – |
| O=C1C(Cl)=C(Nc2ccc(F)cc2)C(=O)c2[nH]c(C(F)(F)F)nc21 [11a, 6-Chloro-5-((4-fluorophenyl)amino)-2-(trifluoromethyl)-1H-benzo[d]imidazole-4,7-dione] | 1020 ± 111 nM | Metabolic Stability Mouse (%) [1]: 95.7 ± 17.2%; Metabolic Stability Rat (%) [2]: >99%; Metabolic Stability Human (%) [3]: 81.4 ± 1.9% |
| O=C1C(NC2CCN(C(=O)c3ccc(C(F)(F)F)cc3)CC2)=C(Cl)C(=O)c2[nH]c(C(F)(F)F)nc21 [14k, 6-Chloro-2-(trifluoromethyl)-5-((1-(4-(trifluoromethyl)benzoyl)piperidin-4-yl)amino)-1H-benzo[d]imidazole-4,7-dione] | > 10000 nM | – |
| Cc1nc2c([nH]1)C(=O)C(Cl)=C(Nc1ccc(F)c(F)c1)C2=O [KCB-77033] | 1030 ± 73 nM | Metabolic Stability Mouse (%) [1]: 5.2 ± 1.6%; Metabolic Stability Rat (%) [2]: 3.4 ± 0.1%; Metabolic Stability Human (%) [3]: 9.0 ± 1.5% |
| O=C1C(Nc2ccc(F)c(F)c2)=C(Cl)C(=O)c2[nH]c(C(F)(F)F)nc21 [11c, 6-Chloro-5-((3,4-difluorophenyl)amino)-2-(trifluoromethyl)-1H-benzo[d]imidazole-4,7-dione] | 834 ± 117 nM | – |
| O=C1C(Nc2ccc(Cl)cc2F)=C(Cl)C(=O)c2[nH]c(C(F)(F)F)nc21 [11g, 6-Chloro-5-((4-chloro-2-fluorophenyl)amino)-2-(trifluoromethyl)-1H-benzo[d]imidazole-4,7-dione] | 526 ± 141 nM | – |
| O=C1C(Cl)=C(Nc2ccc(Cl)cc2)C(=O)c2[nH]c(C(F)(F)F)nc21 [11b, 6-Chloro-5-((4-chlorophenyl)amino)-2-(trifluoromethyl)-1H-benzo[d]imidazole-4,7-dione] | 825 ± 70 nM | – |
| O=C1C(Nc2ccc(F)c(Cl)c2)=C(Cl)C(=O)c2[nH]c(C(F)(F)F)nc21 [11f, 6-Chloro-5-((3-chloro-4-fluorophenyl)amino)-2-(trifluoromethyl)-1H-benzo[d]imidazole-4,7-dione] | 703 ± 96 nM | – |
| O=C1C(Nc2ccc(F)cc2Cl)=C(Cl)C(=O)c2[nH]c(C(F)(F)F)nc21 [11e, 6-Chloro-5-((2-chloro-4-fluorophenyl)amino)-2-(trifluoromethyl)-1H-benzo[d]imidazole-4,7-dione] | 660 ± 113 nM | – |
| COC(=O)N1CCC(NC2=C(Cl)C(=O)c3[nH]c(C(F)(F)F)nc3C2=O)CC1 [14a, Methyl-4-((6-chloro-4,7-dioxo-2-(trifluoromethyl)-4,7-dihydro-1H-benzo[d]imidazol-5-yl)amino)piperidine-1-carboxylate] | 979 ± 104 nM | – |
| Cc1nc2c([nH]1)C(=O)C(Cl)=C(Nc1ccc(F)cc1)C2=O [10a, 6-Chloro-5-((4-fluorophenyl)amino)-2-methyl-1H-benzo[d]imidazole-4,7-dione] | 4910 ± 821 nM | Decrease of P2X3R antagonistic activity compared with KCB-77033 (hP2X3R): 4–5 fold; Metabolic Stability Mouse (%) [1]: 18.4 ± 2.7%; Metabolic Stability Rat (%) [2]: 26.2 ± 3.4%; Metabolic Stability Human (%) [3]: 43.1 ± 4.7% |
| N#Cc1ccc(C(=O)N2CCC(NC3=C(Cl)C(=O)c4[nH]c(C(F)(F)F)nc4C3=O)CC2)cc1 [14j, 4-(4-((6-Chloro-4,7-dioxo-2-(trifluoromethyl)-4,7-dihydro-1H-benzo[d]imidazol-5-yl)amino)piperidine-1-carbonyl)benzonitrile] | 4440 ± 480 nM | – |
| O=C1C(Nc2ccc(F)c(Br)c2)=C(Cl)C(=O)c2[nH]c(C(F)(F)F)nc21 [11i, 5-((3-Bromo-4-fluorophenyl)amino)-6-chloro-2-(trifluoromethyl)-1H-benzo[d]imidazole-4,7-dione] | 1040 ± 221 nM | – |
| O=C1C(NC2CCN(C(=O)c3ccc(Cl)c(Cl)c3)CC2)=C(Cl)C(=O)c2[nH]c(C(F)(F)F)nc21 [14g, 6-Chloro-5-((1-(3,4-dichlorobenzoyl)piperidin-4-yl)amino)-2-(trifluoromethyl)-1H-benzo[d]imidazole-4,7-dione] | 577 ± 66 nM | – |
| O=C1C(NC2CCN(C(=O)c3ccc(F)cc3)CC2)=C(Cl)C(=O)c2[nH]c(C(F)(F)F)nc21 [14d, 6-Chloro-5-((1-(4-fluorobenzoyl)piperidin-4-yl)amino)-2-(trifluoromethyl)-1H-benzo[d]imidazole-4,7-dione] | 450 ± 59 nM | – |
| CCC(=O)N1CCC(NC2=C(Cl)C(=O)c3[nH]c(C(F)(F)F)nc3C2=O)CC1 [14b, 6-Chloro-5-((1-propionylpiperidin-4-yl)amino)-2-(trifluoromethyl)-1H-benzo[d]imidazole-4,7-dione] | 921 ± 117 nM | – |
| O=C1C(Nc2ccc(Cl)cc2I)=C(Cl)C(=O)c2[nH]c(C(F)(F)F)nc21 [11k, 6-Chloro-5-((4-chloro-2-iodophenyl)amino)-2-(trifluoromethyl)-1H-benzo[d]imidazole-4,7-dione] | 774 ± 166 nM | – |
| O=C1C(Nc2ccc(Cl)c(F)c2)=C(Cl)C(=O)c2[nH]c(C(F)(F)F)nc21 [11h, 6-Chloro-5-((4-chloro-3-fluorophenyl)amino)-2-(trifluoromethyl)-1H-benzo[d]imidazole-4,7-dione] | 541 ± 103 nM | – |
| O=C1C(NC2CCN(C(=O)c3ccccc3)CC2)=C(Cl)C(=O)c2[nH]c(C(F)(F)F)nc21 [14c, 5-((1-Benzoylpiperidin-4-yl)amino)-6-chloro-2-(trifluoromethyl)-1H-benzo[d]imidazole-4,7-dione] | 864 ± 112 nM | – |
| O=C1C(NC2CCN(C(=O)c3ccc(F)c(Cl)c3)CC2)=C(Cl)C(=O)c2[nH]c(C(F)(F)F)nc21 [14i, 6-Chloro-5-((1-(3-chloro-4-fluorobenzoyl)piperidin-4-yl)amino)-2-(trifluoromethyl)-1H-benzo[d]imidazole-4,7-dione] | 505 ± 51 nM | – |
